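Tested at 5 concentrations; 48 h exposure; 96-well plates; endpoints linearly interpolated, else capped at highest concentration. Here, GI50 denotes the concentration required for 50% inhibition of growth.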 Activity calls are given as the source filed them. Rule as the data show it: active = GI50 up to about 1.1 µM and inactive = higher.
How the values were obtained:
Test in all cases: NCI anticancer screen, dose series, 48 h
786-0 = test system: 786-0
A549 = test system: A549
ACHN = test system: ACHN
CAKI-1 = test system: CAKI-1
CCRF-CEM = test system: CCRF-CEM
COLO 205 = test system: COLO 205
DLD-1 = test system: DLD-1
DMS-114 = test system: DMS-114
DMS-273 = test system: DMS-273
EKVX = test system: EKVX
HCC 2998 = test system: HCC 2998
HCT-116 = test system: HCT-116
HCT-15 = test system: HCT-15
HL-60 = test system: HL-60
HOP-18 = test system: HOP-18
HOP-62 = test system: HOP-62
HT-29 = test system: HT-29
IGROV-1 = test system: IGROV-1
K562 = test system: K562
KM-20L2 = test system: KM-20L2
KM12 = test system: KM12
LOX IMVI = test system: LOX IMVI
LXFL 529 = test system: LXFL 529
M14 = test system: M14
M19-MEL = test system: M19-MEL
MOLT-4 = test system: MOLT-4
Malme-3M = test system: Malme-3M
NCI-H226 = test system: NCI-H226
NCI-H23 = test system: NCI-H23
NCI-H460 = test system: NCI-H460
NCI-H522 = test system: NCI-H522
OVCAR-3 = test system: OVCAR-3
OVCAR-4 = test system: OVCAR-4
OVCAR-5 = test system: OVCAR-5
OVCAR-8 = test system: OVCAR-8
RPMI-8226 = test system: RPMI-8226
RXF 393 = test system: RXF 393
SF-268 = test system: SF-268
SF-295 = test system: SF-295
SK-MEL-28 = test system: SK-MEL-28
SK-MEL-2 = test system: SK-MEL-2
SK-OV-3 = test system: SK-OV-3
SN12C = test system: SN12C
SNB-19 = test system: SNB-19
SNB-75 = test system: SNB-75
SNB-78 = test system: SNB-78
SR = test system: SR
SW-620 = test system: SW-620
TK-10 = test system: TK-10
U-251 = test system: U-251
UACC-257 = test system: UACC-257
UACC-62 = test system: UACC-62
UO-31 = test system: UO-31
XF498 = test system: XF498
A498 = test system: A498
HOP-92 = test system: HOP-92
SF-539 = test system: SF-539
SK-MEL-5 = test system: SK-MEL-5

CCOC(=O)C1C(c2ccc([N+](=O)[O-])cc2)NC(c2ccc([N+](=O)[O-])cc2)C(C(=O)OC)S1(=O)=O (configuration not stated)
GI50 (786-0): > 100 µM (inactive) | GI50 (A549): > 100 µM (inactive) | GI50 (ACHN): > 100 µM (inactive) | GI50 (CAKI-1): > 100 µM (inactive) | GI50 (CCRF-CEM): > 100 µM (inactive) | GI50 (COLO 205): > 100 µM (inactive) | GI50 (DLD-1): > 100 µM (inactive) | GI50 (DMS-114): > 100 µM (inactive) | GI50 (DMS-273): > 100 µM (inactive) | GI50 (EKVX): > 100 µM (inactive) | GI50 (HCC 2998): > 100 µM (inactive) | GI50 (HCT-116): > 100 µM (inactive) | GI50 (HCT-15): > 100 µM | GI50 (HL-60): > 100 µM (inactive) | GI50 (HOP-18): > 100 µM (inactive) | GI50 (HOP-62): > 100 µM (inactive) | GI50 (HT-29): > 100 µM (inactive) | GI50 (IGROV-1): > 100 µM (inactive) | GI50 (K562): > 100 µM (inactive) | GI50 (KM-20L2): > 100 µM (inactive) | GI50 (KM12): > 100 µM (inactive) | GI50 (LOX IMVI): > 100 µM (inactive) | GI50 (LXFL 529): > 100 µM (inactive) | GI50 (M14): > 100 µM (inactive) | GI50 (M19-MEL): > 100 µM (inactive) | GI50 (MOLT-4): > 100 µM (inactive) | GI50 (Malme-3M): > 100 µM (inactive) | GI50 (NCI-H226): > 100 µM (inactive) | GI50 (NCI-H23): > 100 µM (inactive) | GI50 (NCI-H460): > 100 µM (inactive) | GI50 (NCI-H522): > 100 µM (inactive) | GI50 (OVCAR-3): > 100 µM (inactive) | GI50 (OVCAR-4): > 100 µM (inactive) | GI50 (OVCAR-5): > 100 µM (inactive) | GI50 (OVCAR-8): > 100 µM (inactive) | GI50 (RPMI-8226): > 100 µM (inactive) | GI50 (RXF 393): > 100 µM (inactive) | GI50 (SF-268): > 100 µM (inactive) | GI50 (SF-295): > 100 µM (inactive) | GI50 (SK-MEL-28): > 100 µM (inactive) | GI50 (SK-MEL-2): > 100 µM (inactive) | GI50 (SK-OV-3): > 100 µM (inactive) | GI50 (SN12C): > 100 µM (inactive) | GI50 (SNB-19): > 100 µM (inactive) | GI50 (SNB-75): > 100 µM (inactive) | GI50 (SNB-78): > 100 µM (inactive) | GI50 (SR): > 100 µM (inactive) | GI50 (SW-620): > 100 µM (inactive) | GI50 (TK-10): > 100 µM (inactive) | GI50 (U-251): > 100 µM (inactive) | GI50 (UACC-257): > 100 µM (inactive) | GI50 (UACC-62): > 100 µM (inactive) | GI50 (UO-31): > 100 µM (inactive) | GI50 (XF498): > 100 µM (inactive)

ClCCCCOC1CCCCO1 (configuration not stated)
GI50 (786-0): > 100 µM (inactive) | GI50 (A498): > 100 µM (inactive) | GI50 (A549): > 100 µM (inactive) | GI50 (ACHN): > 100 µM (inactive) | GI50 (CAKI-1): > 100 µM (inactive) | GI50 (COLO 205): > 100 µM (inactive) | GI50 (DLD-1): > 100 µM (inactive) | GI50 (DMS-114): > 100 µM (inactive) | GI50 (DMS-273): > 100 µM (inactive) | GI50 (EKVX): > 100 µM (inactive) | GI50 (HCC 2998): > 100 µM (inactive) | GI50 (HCT-116): > 100 µM (inactive) | GI50 (HCT-15): > 100 µM | GI50 (HL-60): > 100 µM (inactive) | GI50 (HOP-18): > 100 µM (inactive) | GI50 (HOP-62): > 100 µM (inactive) | GI50 (HOP-92): > 100 µM (inactive) | GI50 (HT-29): > 100 µM (inactive) | GI50 (IGROV-1): > 100 µM (inactive) | GI50 (KM-20L2): > 100 µM (inactive) | GI50 (KM12): > 100 µM (inactive) | GI50 (LXFL 529): > 100 µM (inactive) | GI50 (M14): > 100 µM (inactive) | GI50 (M19-MEL): > 100 µM (inactive) | GI50 (MOLT-4): > 100 µM (inactive) | GI50 (Malme-3M): > 100 µM (inactive) | GI50 (NCI-H226): > 100 µM (inactive) | GI50 (NCI-H23): > 100 µM (inactive) | GI50 (NCI-H460): > 100 µM (inactive) | GI50 (NCI-H522): > 100 µM (inactive) | GI50 (OVCAR-3): > 100 µM (inactive) | GI50 (OVCAR-4): > 100 µM (inactive) | GI50 (OVCAR-5): > 100 µM (inactive) | GI50 (OVCAR-8): > 100 µM (inactive) | GI50 (RXF 393): > 100 µM (inactive) | GI50 (SF-268): > 100 µM (inactive) | GI50 (SF-295): > 100 µM (inactive) | GI50 (SF-539): > 100 µM (inactive) | GI50 (SK-MEL-28): > 100 µM (inactive) | GI50 (SK-MEL-2): > 100 µM (inactive) | GI50 (SK-MEL-5): > 100 µM (inactive) | GI50 (SK-OV-3): > 100 µM (inactive) | GI50 (SN12C): > 100 µM (inactive) | GI50 (SNB-19): > 100 µM (inactive) | GI50 (SNB-75): > 100 µM (inactive) | GI50 (SNB-78): > 100 µM (inactive) | GI50 (SW-620): > 100 µM (inactive) | GI50 (TK-10): > 100 µM (inactive) | GI50 (U-251): > 100 µM (inactive) | GI50 (UACC-257): > 100 µM (inactive) | GI50 (UACC-62): > 100 µM (inactive) | GI50 (UO-31): > 100 µM (inactive) | GI50 (XF498): > 100 µM (inactive)
